Entries after “also recorded” stand apart in the source; their conditions may differ. Non-standard residues stand in square brackets, D forms with d. No end group written: not given here. *: point of attachment. X1 = CC[N+]1=C(/C=C/C=C/C=C2N(CCCCCC(=O)NCCN3C(=O)CC(*)C3=O)c3ccc(S(=O)(=O)O)cc3C2(C)C)C(C)(C)c2cc(S(=O)(=O)[O-])ccc21
What was measured:
trypsin = trypsin (Sus scrofa, UniProt P00761); conditions: trypsin digestion, 37°C, pH8, followed up to 24 h
Description: Trypsin proteolysis. MUB40 (SEQ ID NO: 3)-Cy5 and RI-MUB40 (SEQ ID NO: 2)-Cy5 were dissolved in 50 mM ammonium bicarbonate, pH 8. Prior to digestion and owing to the propensity of maleimide derivatives to undergo ring-opening in a basic environment (Fontaine et al., 2015), we incubated both peptides at 37° C. overnight. Ring-opening completion was checked before trypsin addition. […] Lyophilized trypsin (Thermo scientific) was reconstituted using 50 mM acetic acid, diluted with 50 mM ammonium bicarbonate and added to the peptide solution so as to obtain a final peptide concentration of 0.25 mg/mL and a protease to protein ratio of 1:20 (w/w). Samples were directly incubated on the injection sampler thermostated at 37° c. HPLC and LC-MS analyses were performed as previously described above, applying a 15% to 40% linear gradient of acetonitrile in 10 mM ammonium acetate over 20 minutes.
Hydrolysis experiments were done in solution at 37° c., pH8 and monitored by HPLC by measuring the peak area of the remaining intact peptides.

human colonic mucus = test: Fluorescent labelling of human colonic mucus layer; assay type: binding; conditions: 1 μg/mL
Description: Colon explant surgical collection. In summary, human colon segments (ascending, descending, and sigmoid colon) were obtained from fully informed patients undergoing surgery for colon carcinoma and were analyzed anonymously. Patient written consent was obtained, according to the French bioethics law. None of the patients had undergone radiotherapy or chemotherapy. According to the pathologist's examination rules for the longitudinally bisected colon, a healthy segment of tissue, which was distant from the tumor region and devoid of metastatic cells, was removed. Tissues were processed according to the French Government guidelines for research on human tissues and the French Bioethics Act with the authorization no RBM 2009-50.
Fixation and staining procedures. For microscopy studies, purified or cultured cells and polymerized lactoferrin were resuspended onto 24-well plates containing 12 mm coverslips in RMPI 1640+10 mM Hepes (when cultured in the autologous plasma) and centrifuged at 300×g for 10 min. Culture media were removed and cells were fixed in 4% Paraformaldehyde (PFA) for two hours. Fixed cells were washed three times in PBS+0.1% saponin (Sigma-Aldrich), prior immunolabeling with primary antibodies in the same buffer for 1 hour (Triton 0.1% can alternatively be used for cell permeabilization). After three additional washes in PBS+0.1% saponin, secondary antibodies and fluorescent markers were incubated for one hour. […]
Antibodies, fluorescent markers. For immunofluorescence assay, lactoferrin was detected with a mouse anti-lactoferrin primary monoclonal antibody (Hycult biotech, clone 265-1K1, 1:50 dilution) and an anti-mouse-FITC conjugated secondary antibody (1:1000). Nuclei were detected with DAPI (Life Technologies), Lyophilized MUB40 peptides (MUB40#1 (SEQ ID NO: 3)-Cy5, MUB40#2 (SEQ ID NO: 4)-Cy5, MUB40#3 (SEQ ID NO: 5)-Cy5, MUB40#4 (SEQ ID NO: 6)-Cy5, MUB40#1 (SEQ ID NO: 3)-Dylight, RI-MUB40 (SEQ ID NO: 2)-Cy5, and RI-MUB40 (SEQ ID NO: 2)-Biotin) were solubilized in a phosphate buffer pH8 at a 1 mg/mL concentration and used at a 1:1000 dilution. […]

[1] = tested on: human neutrophil granules; test: Fluorescent labelling of fixed purified human neutrophils; assay type: cell-based; conditions: 1 μg/mL
Description: Fixation and staining procedures. For microscopy studies, purified or cultured cells and polymerized lactoferrin were resuspended onto 24-well plates containing 12 mm coverslips in RMPI 1640+10 mM Hepes (when cultured in the autologous plasma) and centrifuged at 300×g for 10 min. Culture media were removed and cells were fixed in 4% Paraformaldehyde (PFA) for two hours. Fixed cells were washed three times in PBS+0.1% saponin (Sigma-Aldrich), prior immunolabeling with primary antibodies in the same buffer for 1 hour (Triton 0.1% can alternatively be used for cell permeabilization). After three additional washes in PBS+0.1% saponin, secondary antibodies and fluorescent markers were incubated for one hour. Coverslips were washed three time in PBS+0.1% saponin, three times in PBS, and three times in deionized H2O and mounted with prolong gold^tm mounting media.
Antibodies, fluorescent markers. For immunofluorescence assay, lactoferrin was detected with a mouse anti-lactoferrin primary monoclonal antibody (Hycult biotech, clone 265-1K1, 1:50 dilution) and an anti-mouse-FITC conjugated secondary antibody (1:1000). Nuclei were detected with DAPI (Life Technologies), Lyophilized MUB40 peptides (MUB40#1 (SEQ ID NO: 3)-Cy5, MUB40#2 (SEQ ID NO: 4)-Cy5, MUB40#3 (SEQ ID NO: 5)-Cy5, MUB40#4 (SEQ ID NO: 6)-Cy5, MUB40#1 (SEQ ID NO: 3)-Dylight, RI-MUB40 (SEQ ID NO: 2)-Cy5, and RI-MUB40 (SEQ ID NO: 2)-Biotin) were solubilized in a phosphate buffer pH8 at a 1 mg/mL concentration and used at a 1:1000 dilution. For PBMC staining CD19-APC (B lymphocytes), CD3-APC (T lymphocytes), and CD14-PercP (monocytes, macrophages) (BD Bioscience) were used at a 1:1000 dilution together with Dapi (1:1000) and MUB40-Cy5 (1 mg/mL). Actin was stained with Phalloidin-Rhodamine red X (RRX) (Jackson Immunoresearch Antibodies) used at a 1:1000 final dilution.
Polymorphonuclear neutrophils purification. Human polymorphonuclear neutrophils were purified as described previously (Monceaux et al. 2016). Briefly, plasma was removed by centrifugation (450×g, 15 min); blood cells were resuspended in 0.9% NaCl solution supplemented with 0.72% Dextran. After red blood cells sedimentation, white blood cells were pelleted and further separated on a two layer Percoll (GE Healthcare) (51%−42%) by centrifugation (at 240×g, 20 min). PBMC (top layer) were isolated from polymorphonuclear neutrophils (bottom layer). Red blood cells were removed from the latter fraction using CD235a (glycophorin) microbeads (negative selection) (Miltenyi Biotec). PBMCs and polymorphonuclear neutrophils were resuspended in the autologous plasma. Guinea pig and mouse polymorphonuclear neutrophils were purified with the same procedure.
Confocal microscopy. […]

[2] = tested on: mucus produced by human cell lines (L174T); test: Binding to mucus produced by human cell lines; assay type: cell-based
living human neutrophils = test: Live microscopy of neutrophils infected with Shigella flexneri; assay type: cell-based
Description: Neutrophil infection. Human purified neutrophils were cultured in glass-bottom dishes (Mattek) for live fluorescent microscopy in a RMPI 1640 (Life Technologies) culture medium supplemented with 10% of heat inactivated Human Serum (Sigma-Aldrich). Neutrophils (5.10^5 cell/mL in 2 mL) were infected with exponentially-grown Shigella flexneri 5a pGFP at a Multiplicity Of Infection (MOI) 20 in RMPI 1640 (Life Technologies) culture medium supplemented with 10 mM Hepes (Life Technologies) at 37° C. Infected neutrophils were centrifuged at 2000 rpm for 10 min prior imaging.
Live epifluorescence microscopy. Viable neutrophils infected with S. flexneri pGFP were imaged on a Definite focus live microscope (Zeiss) equipped with a temperature control chamber (37° C.) and a 63× oil immersion objective. Images were acquired every 60 s. Z-stack images were taken with […] step-size increments. Obtained Z-stack images were processed with Fiji software to generate a Movie and the corresponding extracted images are shown in FIG. 16a.

[3] = tested on: inflammatory sites, localized in joints; test: Mouse arthritis model (K/B×N serum transfer), in vivo epifluorescence imaging
Description: Mouse arthritis model. 6-7 weeks old female C57BL/6J mice were purchased from Charles River France, housed under specific pathogen-free (SPF) conditions and handled in accordance with French and European directives. Mouse protocols were approved by the Animal Ethics committee CETEA number 89 (Institut Pasteur, Paris, France) and registered under #2013-0103, and by the French Ministry of Research under agreement #00513.02. Arthritis was induced by i.v. injection of 120 μL K/B×N serum and arthritis scored as described previously (Bruhns et al. 2003). Mice injected with physiological saline were used as controls. On day 6 after serum transfer, mice were anesthetized, shaved, depilated and injected i.p. with luminol (10 mg/mouse) and i.v. with 5 μg/mouse MUB-40 Cy5. Epifluorescence, bioluminescence and CT images were acquired 10-90 min after injection using an IVIS SpectrumCT (Perkin Elmer).

[4] = tested on: hind and front inflamed ankles; test: K/B×N mice, ankle fluorescence imaging after intravenous injection; assay type: in vivo, mouse; conditions: 2 days post i.v. injection of 0.9 nmoles; p<0.01 vs MUB40-Cy5, p<0.001 vs Cy5 only
Excerpt: (A) Ankles of K×B/N mice were imaged 2 Days after intravenous injection of 0.9 nmoles of RI-MUB40-Cy5 (SEQ ID NO: 2), MUB40-Cy5 (SEQ ID NO: 3) or Cy5 only. Fluorescence was quantified at the level of front or hind ankles (in ROI, as indicated).
(B) Quantification of the fluorescent signal associated with RI-MUB40 (SEQ ID NO: 2)-Cy5, MUB40 (SEQ ID NO: 3)-Cy5 or Cy5 accumulation at hind and front ankles (top) or hind ankles only (bottom). Results are average from at least three animals. ** indicates p<0.01 and *** indicates p<0.001 (Student's T-test).

[5] = tested on: neutrophils recruited to guinea pig colonic mucosa infected with Shigella flexneri; test: Guinea pig model of shigellosis, staining of fixed colon sections; conditions: guinea pig colon, Shigella flexneri, 1 μg/ml
Description: Guinea pig. The experimental protocol was approved by the french Ethic Committee Paris (n° 20140069, 2014). Young guinea pigs (Hartley, <150 g, Charles River) were anaesthetized and infected intrarectally with 10^9 CFU exponentially grown Shigella flexneri 5a (M90T) pGFP as previously described (Shim et al. 2007) (Monceaux et al. 2016). Infection occurred during 8 hours before animals were sacrificed and infected colons collected and fixed in 4% Paraformaldehyde (PFA) for two hours. For immunohistochemical staining, infected guinea pig colon samples were washed in PBS and incubated at 4° C. in PBS containing 16% sucrose for 4 hours, followed by incubation in PBS with 30% sucrose overnight. Samples were frozen in OCT (VWR 361603E) on dry ice. Frozen blocks were stored at −80 until sectioning. 10 to 30 μm sections were obtained using a cryostat CM-3050S (Leica). Tissue slices were labeled in PBS+0.1% saponin (Sigma-Aldrich) with MUB40-Cy5 or MUB40-Dylight (1 μg/ml) to localize recruited neutrophils. Slides were washed three time in PBS+0.1% saponin, three times in PBS, and three times in deionized H2O and mounted with prolong gold^tm mounting media.

[6] = tested on: neutrophils recruited to rabbit ileum infected with Shigella flexneri; test: Rabbit ligated loop model of shigellosis, staining of fixed ileum sections; conditions: 1 μg/mL
Description: Rabbit. The experimental protocol was approved by the french Ethic Committee Paris 1 (number 20070004, December 9th 2007). New Zealand White rabbits weighting 2.5-3 kg (Charles River) were used for experimental infections. For each animal, up to 12 intestinal ligated loops, each 5 cm in length, were prepared as described previously (Jones et al. 2007; Martinez et al. 1988; West et al. 2005) and infected with 10^5 CFU S. flexneri pGFP per loop. After 16 h, animals were sacrificed and collected tissue were fixed in 4% Paraformaldehyde (PFA) for two hours. For immunohistochemical staining, infected rabbit ileum samples were washed in PBS, incubated at 4° C. PBS containing 12% sucrose for 90 min, then in PBS with 18% sucrose overnight, and frozen in OCT (Sakura) on dry ice. 7 μm sections were obtained using a cryostat CM-3050 (Leica). Fluorescent staining was performed in PBS+0.1% saponin using Phalloidin-RRX (1:1000 dilution) to stain Actin, MUB40-Cy5 (1 μg/mL) and a mouse anti-lactoferrin primary monoclonal antibody (Hycult biotech, clone 265-1K1, 1:50 dilution) and an anti-mouse-FITC conjugated secondary antibody (1:1000) to stain infiltrated neutrophils. Slides were washed three time in PBS+0.1% saponin, three times in PBS, and three times in deionized H2O and mounted with prolong gold^tm mounting media.

Sequence of trypsin (P00761 9-231): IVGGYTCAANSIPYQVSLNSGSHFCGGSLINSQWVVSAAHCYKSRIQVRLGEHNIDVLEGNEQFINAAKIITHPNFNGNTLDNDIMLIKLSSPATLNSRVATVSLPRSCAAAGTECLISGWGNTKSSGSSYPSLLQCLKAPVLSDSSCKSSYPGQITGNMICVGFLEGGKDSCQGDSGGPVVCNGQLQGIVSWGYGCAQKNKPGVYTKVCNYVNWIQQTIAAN

Substance	degradation by trypsin (in words) (trypsin)	labelling of / binding to human colonic mucus (human colonic mucus)	labelling of human neutrophil granules [1]	binding to mucus produced by human cell lines (L174T) [2]	detection of lactoferrin degranulation on living neutrophils (living human neutrophils; Shigella flexneri MOI 20, 1 μg/mL, 37°C)	crossing of plasma membrane of living cells (living human neutrophils; live cells, listed as RI-MUB40-Cy5)	relation of epifluorescent signal to luminol bioluminescent signal ([3]; hind ankle joints, p≤0.0001)	accumulation of fluorescent signal at inflammatory sites ([3]; i.v. injection, arthritic mice but not naïve controls, day 6)	epifluorescent signal, arthritic mice vs controls ([3]; p≤0.0001, T-test)	fluorescent signal accumulation at hind and front inflamed ankles [4]	labelling of recruited neutrophils [5]	labelling of recruited neutrophils [6]
Ac-[dC](X1)[dF][dI][dV][dT][dY][dF][dQ][dD][dN][dT][dD][dD][dN][dD][dF][dK][dE]G[dA][dP][dF][dN][dD][dK][dF][dL][dE][dY]G[dD]G[dE][dF][dK][dK][dI]G[dE][dA][dT]-NH2 [Cy5-RI-MUB40]	no degradation	validated	validated	validated	transient, dot-shaped fluorescent signals were detected on the cells' surface	did not cross the plasma membrane of living cells; also recorded: does not cross plasma membrane of live cells	correlated	a fluorescent signal accumulated at inflammatory sites	significantly higher in arthritic mice compared to controls	significantly higher compared to MUB40-Cy5	–	–
MUB40-Dylight405: MUB40#1 (SEQ ID NO: 3) labeled with Dylight 405 (CTAEGIKKFEGDGYELFKDNFPAGEKFDNDDTNDQFYTVIF; also: Dylight 405 label (site not given here))	–	–	specifically labeled	–	–	–	–	–	–	–	specifically labeled	specifically labeled

Source: US11472844B2, “Peptidomimetics, method of synthesis and uses thereof” (priority 2017, dated 2022)
